According to patent US20020128464A1, “Method of finding modulators of enzymes of the carotenoid biosynthetic pathway” (priority 2000, published 2002):

Key:
[1] = test system: tobacco plants; assay: Carotenoid content (phytoene accumulation) of treated tobacco plants, HPLC; format: in vivo, Nicotiana tabacum; details: tobacco plants treated with norflurazon; comparator for PDS antisense lines
[2] = test system: PDS; details: in vitro (Trebst, 1997); cited from earlier work
[3] = biological target: Erwinia uredovora PSY (Pantoea ananas, UniProt P21683); details: overexpressed Erwinia uredovora PSY (Neudert, 1998); read-out: pI valve (inhibition of phytoene synthase); cited from earlier work
Sequence of Erwinia uredovora PSY (P21683 whole entry): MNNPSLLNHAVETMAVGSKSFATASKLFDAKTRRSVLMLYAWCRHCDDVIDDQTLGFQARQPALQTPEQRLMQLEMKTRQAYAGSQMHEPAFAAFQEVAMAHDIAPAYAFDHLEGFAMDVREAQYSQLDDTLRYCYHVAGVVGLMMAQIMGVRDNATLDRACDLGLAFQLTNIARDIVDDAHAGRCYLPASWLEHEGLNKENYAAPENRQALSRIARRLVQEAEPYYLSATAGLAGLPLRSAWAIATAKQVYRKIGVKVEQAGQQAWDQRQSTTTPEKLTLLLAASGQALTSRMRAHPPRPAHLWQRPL

For `CNc1cnn(-c2cccc(C(F)(F)F)c2)c(=O)c1Cl` [norflurazon], the accumulation of phytoene [1] is given as “very high accumulation of phytoene” and the “photosystem II activity following inhibition of PDS” value [2] is given as “loss of photosystem II activity”.

In the case of `C=C(CC[C@]12O[C@H](C(=O)O)[C@@](O)(C(=O)O)[C@](C(=O)O)(O1)[C@H](OC(=O)/C=C/[C@@H](C)C[C@@H](C)CC)[C@H]2O)[C@@H](OC(C)=O)[C@H](C)Cc1ccccc1` [squalestatin], the IC50 [3] is given as 15 µM.

For fluridone, the “photosystem II activity following inhibition of PDS” value [2] is given as “loss of photosystem II activity”.
